Results on 80 compounds are retold here after PubChem BioAssay AID1645868 (Buhrlage Lab, Dana-Farber Cancer Institute and Novartis …, 2021).

By IC50 is commonly meant the concentration that inhibits the measured activity by half.

The source made the active and inactive calls.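 The calls were made as follows: active = maximal percent inhibition of the deubiquitinase OTUD3 of at least 30% across the tested doses; inactive = the rest.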 Positions of bridges follow the written chain, without caps; N, C: chain ends. Residues, ends and D or L forms follow the SMILES beside them. ξ: configuration not given here. *: point of attachment. Pentadecanoyl(3ξ-OH,15-Gua) = N=C(N)NCCCCCCCCCCCCC(O)CC(=O)*

For the assay, the target named is OTU domain-containing protein 3 (Homo sapiens) (UniProt Q5T2D3). Description: Validation of screening hits, potency titration, in vitro enzymatic, OTU domain-containing protein 3 DUB inhibitors (AID 1645868). Particulars: purified OTUD3, ubiquitin-rhodamine cleavage fluorescence, 2 h.
OTU domain-containing protein 3 (Homo sapiens), sequence (Q5T2D3 whole entry, looked up, the tested form may be a part): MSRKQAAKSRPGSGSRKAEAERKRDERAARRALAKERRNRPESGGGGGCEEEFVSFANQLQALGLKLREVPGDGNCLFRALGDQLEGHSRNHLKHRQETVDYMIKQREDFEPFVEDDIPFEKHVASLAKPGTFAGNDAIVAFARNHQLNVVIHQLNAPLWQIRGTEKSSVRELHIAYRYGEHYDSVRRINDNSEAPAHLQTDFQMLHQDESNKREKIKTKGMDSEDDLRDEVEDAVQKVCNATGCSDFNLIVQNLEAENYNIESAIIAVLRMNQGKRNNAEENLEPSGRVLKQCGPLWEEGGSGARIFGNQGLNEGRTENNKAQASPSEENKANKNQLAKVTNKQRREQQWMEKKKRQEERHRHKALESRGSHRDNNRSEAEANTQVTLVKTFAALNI

With `O=C(NCCc1ccccn1)c1cn2ccnc(-c3ccc(F)cc3)c2n1`, the IC50 is > 50 µM (inactive).

In the case of `Nc1nc(-c2ccc[nH]2)cs1`, the IC50 was > 50 µM (inactive).

As for `O=C(c1ccc2occc2c1)N1CCC(S(=O)(=O)c2ccc(-c3ccco3)cc2)CC1`, the IC50 is > 50 µM (inactive).

On to `O=C(NCc1cccnc1)c1cnn2c(C(F)(F)F)cc(-c3ccccc3)nc12`, for which the IC50 is > 50 µM (inactive).

As for `Cc1ccc(NC(=O)Cc2nnc3c(-c4nc(C5CC5)no4)cccn23)cc1`, the IC50 was 31.3 µM.

For the compound `Cc1ccc2c(c1)[C@]1(C(=O)N2)[C@@H]2C(=O)N(c3cccc(C(F)(F)F)c3)C(=O)[C@@H]2C2CCCN21` (stereo not given in full), the IC50 is > 50 µM (inactive).

Consider `CCCc1cc(=O)oc2cc(OCC(=O)NCc3ccc(OC)cc3)ccc12`, for which the IC50 was 36.2 µM.

Regarding `Cc1cccc(NC(=O)Cn2c(-c3cnccn3)nc(C)c(C)c2=O)c1C`, the IC50 is > 50 µM (inactive).

As to `CCOc1ccccc1C(=O)Nc1ccc2c(c1)Sc1ncccc1C(=O)N2C`, the IC50 is > 50 µM (inactive).

Regarding `CCn1c(CN2CCCC(c3nc(-c4cccnc4)n[nH]3)C2)nc2ccccc21` (stereo not given), the IC50 is > 50 µM (inactive).

Regarding `O=C1CC(NS(=O)(=O)c2ccc3ccccc3c2)CN1c1cccc(F)c1` (stereo not given), the IC50 is > 50 µM (inactive).

For the compound `CC1(C)Cc2c(sc3nc(Cc4ccccc4)nc(SCC(=O)Nc4ccccc4)c23)CO1`, the IC50 was 6.75 µM.

On to `CC(C)c1cc(NCc2ccccc2)n2nc(-c3cccnc3)nc2n1`, for which the IC50 is 25.4 µM.

With `CCN(Cc1ccccc1)S(=O)(=O)c1ccc(C(=O)Nc2ccc3c(c2)OCCO3)cc1`, the IC50 is > 50 µM (inactive).

As for `NS(=O)(=O)c1cccc(NC(=O)CN2CCCc3ccccc32)c1`, the IC50 is > 50 µM (inactive).

As to `O=C(CCc1nnc2n(Cc3ccccc3Cl)c(=O)c3ccccc3n12)NCc1ccccn1`, the IC50 is > 50 µM (inactive).

As for `COC(=O)c1sccc1NC(=O)COc1ccsc1C(=O)OC`, the IC50 was > 50 µM (inactive).

Regarding `COc1ccc(OC)c(CCNC(=O)CCC2=NS(=O)(=O)c3ccc(C(F)(F)F)cc3N2)c1`, the IC50 was 29.2 µM.

`O=C1N(Cc2cccc(Cl)c2)CCN1c1ccc2c(c1)CCC2`: the IC50 was > 50 µM (inactive).

Turning to `CCNc1nc(SCC(C)=O)nc2sc3c(c12)CCC(C)C3` (stereo not given), the IC50 was > 50 µM (inactive).

Turning to `CC(=O)c1ccc(NC(=O)c2nc3ccccc3nc2N2CCOCC2)cc1`, the IC50 is > 50 µM (inactive).

In the case of `Cn1c(=O)c2c(nc3n(-c4ccccc4F)c(-c4ccccc4)cn23)n(C)c1=O`, the IC50 was > 50 µM (inactive).

As to `Cc1ccc2c(c1)N(Cc1nc(-c3ccc(F)cc3)no1)C(=O)CO2`, the IC50 was > 50 µM (inactive).

As to `COc1ccccc1C(=O)N1CCC(S(=O)(=O)c2ccc(-c3ccco3)cc2)CC1`, the IC50 was > 50 µM (inactive).

Turning to `Fc1ccc(-c2noc(-c3nnc(NCc4cccnc4)c4ccccc34)n2)cc1`, the IC50 is > 50 µM (inactive).

As for `CN(C)S(=O)(=O)N1CCCC2(C1)Nc1cccnc1NC2=NC1CCCC1` (stereo not given), the IC50 was > 50 µM (inactive).

`Cc1ccc2nc(NC(=O)CSc3nnc(-c4ccncc4)n3C3CC3)sc2c1`: the IC50 was > 50 µM (inactive).

With `COCCCNC(=O)c1ccc(Cn2c(=O)c3ccccc3n(CC(=O)Nc3ccc(OC)cc3)c2=O)cc1`, the IC50 is 28.1 µM.

As to `O=C1c2ccccc2NC2(C(=O)Nc3ccc(Br)cc32)N1c1ccccc1` (stereo not given), the IC50 is > 50 µM (inactive).

Regarding `Cc1ccc(C2c3cccn3CCN2C(=O)Nc2ccccc2)cc1` (stereo not given), the IC50 is > 50 µM (inactive).

With `CC1=C2C(=NCCN1)C(=O)N(c1ccccc1)C2c1cccnc1` (stereo not given), the IC50 was > 50 µM (inactive).

Take `CC1CCN(c2cc(-n3cnc(C(=O)N4CCCCC4)c3)ncn2)CC1`: the IC50 is > 50 µM (inactive).

For the compound `CCc1ccc(C2c3c(oc4ccccc4c3=O)C(=O)N2c2nncs2)cc1` (stereo not given), the IC50 was > 50 µM (inactive).

Regarding `CCOc1ccc(C(=O)Cn2c(=O)n(CC3CCCO3)c(=O)c3cc(OC)c(OC)cc32)cc1Cl` (stereo not given), the half-inhibitory concentration (IC50) is 45.1 µM.

On to `Cc1ccc(-n2c(=O)c3ccccc3n(Cc3c(F)cccc3Cl)c2=O)cc1`, for which the IC50 is > 50 µM (inactive).

On to `Cc1ccc2c(c1)c(=O)c(C(=O)c1ccccc1)cn2CC(=O)Nc1ccccc1`, for which the IC50 is 31.5 µM.

As to `O=C(COC(=O)c1cc(Cl)c2c(c1)OCO2)Nc1ccc2[nH]c(=O)[nH]c2c1`, the IC50 is > 50 µM (inactive).

For the compound `COc1ccc(-n2ccn3c(CCC(=O)NCc4ccc(F)cc4)nnc3c2=O)cc1`, the IC50 is 33.3 µM.

As to `COc1ccccc1CNC(=O)c1ccccc1OCc1ccccc1Cl`, the IC50 was > 50 µM (inactive).

For the compound `CC1CCN(Cc2nnc(-c3cn(CC(=O)NC4CCCCC4)c4ccccc34)o2)CC1`, the IC50 is > 50 µM (inactive).

Consider `CC1NC(=O)C(CC(N)=O)NC(=O)C(C(C)O)NC(=O)C(Cc2ccc(O)cc2)NC(=O)C(C(C)C)NC(=O)C(NC(=O)CC(O)CCCCCCCCCCCCN=C(N)N)C(C)OC1=O` (stereo not given) ({Pentadecanoyl(3ξ-OH,15-Gua)}-TVYTNA; ester 1-C; configuration not given here), for which the IC50 was 36.6 µM.

As to `C=C1CCC2[C@](C)(CCC[C@]2(C)C(=O)OC)[C@H]1CCc1ccoc1/C=C/C(=O)O` (stereo not given in full), the IC50 was > 50 µM (inactive).

As to `N#Cc1cccc(NC(=O)Cn2cccc(-c3nc(-c4ccccc4)no3)c2=O)c1`, the IC50 is > 50 µM (inactive).

As for `Cc1cccc(NC(=O)CSc2ncnc3c2sc2nc(CC(C)C)c4c(c23)CCC4)c1`, the IC50 was > 50 µM (inactive).

Turning to `CCOCCCn1c(SCC(=O)Nc2ccccc2C(F)(F)F)nc2ccccc2c1=O`, the IC50 is 19.4 µM.

Take `COc1cc(C)c(NC(=O)c2cc(-c3ccccc3)c(N3CCOCC3)s2)cc1OC`: the IC50 is > 50 µM (inactive).

Consider `Cc1cc(NC(=O)Cn2c(=O)n(CCCCC(=O)NCc3ccco3)c(=O)c3ccccc32)ccc1Br`, for which the IC50 was 3.48 µM.

As to `N#Cc1ccccc1COC(=O)c1ccc2ccccc2n1`, the IC50 is > 50 µM (inactive).

In the case of `O=C(COc1ncnc2ccccc12)Nc1ccc2c(c1)OC1(CCCC1)O2`, the IC50 is 46.2 µM.

On to `Cc1nc2ccc(NC(=O)COc3ccccc3[N+](=O)[O-])cc2s1`, for which the IC50 is 19.9 µM.

With `CCn1c(COc2cccc(C(F)(F)F)c2)nnc1SCc1ccc(Cl)cc1`, the IC50 is 28.8 µM.

For `O=S(=O)(c1ccccc1Cl)N1CCN(c2ccc3nnc(-c4ccco4)n3n2)CC1`, the IC50 is > 50 µM (inactive).

On to `CC1CCc2c(sc3nc(CC#N)[nH]c(=O)c23)C1` (stereo not given), for which the IC50 is > 50 µM (inactive).

For `Cc1ccc(C)c(-n2c(N)c(C(=O)NCCc3ccccc3)c3nc4ccccc4nc32)c1`, the IC50 was > 50 µM (inactive).

With `Cc1cccc(NC(=O)CN2C(=O)CC(c3ccccc3)S(=O)(=O)c3ccccc32)c1C` (stereo not given), the IC50 is 22.1 µM.

Turning to `COC(=O)c1ccc(Cn2cnc3ccc(Br)cc3c2=O)o1`, the IC50 was > 50 µM (inactive).

Consider `O=C(c1ccc(N2CCc3ccccc32)nn1)N1CCc2ccccc21`, for which the IC50 is > 50 µM (inactive).

For the compound `Cc1nn(-c2cc(N3CCOCC3)ncn2)c(C)c1CCC(=O)Nc1ccc(C(C)C)cc1`, the IC50 was 33.3 µM.

In the case of `CCc1ccc(OCc2nnc(SCC(=O)Nc3ccccc3OC)n2Cc2ccccc2)cc1`, the IC50 is > 50 µM (inactive).

Consider `O=C(CSc1nnc(-c2ccc3c(c2)OCO3)n1-c1ccccc1)OCC(=O)c1ccccc1`, for which the IC50 was > 50 µM (inactive).

Regarding `Cc1cc(C)nc(-n2nc(C)c3c2NC(=O)CSC3c2ccc(F)cc2F)n1` (stereo not given), the IC50 is 47.2 µM.

For `COc1ccc(CC(NC(C)=O)C(=O)NC2CCN(c3c(Cc4ccccc4)c(C)nc4ncnn34)CC2)cc1OC` (stereo not given), the IC50 is > 50 µM (inactive).

For the compound `CN1CCC(N(C)S(=O)(=O)c2ccc(NC(=O)c3cccc(OCc4ccccc4)c3)cc2)CC1`, the IC50 is > 50 µM (inactive).

As for `O=C(CSc1cn(Cc2ccccc2)c2ccccc12)Nc1ccc2c(c1)OCCO2`, the IC50 was > 50 µM (inactive).

Turning to `N#Cc1c(Cl)cccc1Oc1ccc(S(=O)(=O)N2CCC(O)CC2)cc1`, the IC50 was 21.3 µM.

Consider `COc1cc2c(c(OCC(=O)Nc3ccc4c(c3)OCCO4)c1)C(=O)O[C@@H](C)CCCC(=O)CCCCC2`, for which the IC50 is 48.5 µM.

In the case of `COc1ccc(-c2cc3nc(C)cc(Nc4ccc(F)cc4)n3n2)cc1OC`, the IC50 was > 50 µM (inactive).

As for `COc1ccc(-c2cc(-c3nnc(CSc4nc5ccccc5n4C)o3)c3ccccc3n2)cc1OC`, the IC50 is > 50 µM (inactive).

Turning to `CN1C(=O)[C@@]23C[C@]4([C@@]56C[C@]78SS[C@](CO)(C(=O)N7[C@@H]5Nc5ccccc56)N(C)C8=O)c5ccccc5N[C@@H]4N2C(=O)[C@]1(CO)SS3`, the IC50 was > 50 µM (inactive).

Take `Cc1cc(-c2ccnc3c(C#N)cnn23)c(C)s1`: the IC50 is > 50 µM (inactive).

For `Cc1ccc(N=Cc2sc(O)c3ccccc23)c(C)c1`, the IC50 was > 50 µM (inactive).

Turning to `Cc1cc(C(=O)COC(=O)c2ccc[nH]c2=O)c(C)n1-c1ccc2c(c1)OCO2`, the IC50 is > 50 µM (inactive).

Regarding `CO[C@H]1[C@@H](O)[C@H](C)O[C@H](O[C@H]2[C@H](Oc3cccc4c(O)c5c(=O)oc6ccc(C)c7c(=O)oc(c34)c5c67)O[C@H](C)[C@H](O)[C@@H]2O)[C@@H]1O`, the IC50 was > 50 µM (inactive).

Consider `COc1ccc(-c2cc(C(F)F)n3ncc(C(=O)Nc4ccc5c(c4)OCCO5)c3n2)cc1`, for which the IC50 is > 50 µM (inactive).

In the case of `Cc1nc(N2CCCC2)ncc1-c1cc(=O)[nH]c(N2CCc3ccccc3C2)n1`, the IC50 was 29.3 µM.

Take `CCOc1cccc2sc(N(Cc3cccnc3)C(=O)CCc3ccccc3)nc12`: the IC50 was > 50 µM (inactive).

As for `CC1CCN(S(=O)(=O)c2ccc(C(=O)Nc3ccc(S(N)(=O)=O)cc3)cc2)CC1`, the IC50 was > 50 µM (inactive).

On to `CC(=O)N1Cc2ccccc2CC2(CCCN(CC3CCOCC3)C2)C1` (stereo not given), for which the IC50 was > 50 µM (inactive).

With `O=C(Cn1c(=O)n(CCC(=O)N2CC=C(c3ccccc3)CC2)c(=O)c2ccccc21)NCc1ccco1`, the IC50 is > 50 µM (inactive).

Regarding `CCOc1ccc2cc3c(nc2c1)OC(=O)N(Cc1ccc(C)o1)C3`, the IC50 was > 50 µM (inactive).
